For nine compounds, LEL results are on record in EPA's ToxValDB 9.5 (doi:10.2903/j.efsa.2020.6338).

Structures are written as SMILES.

One series concerns Sus scrofa. The settings on record: subchronic; duration: 42 days; oral; diet; M/F; Not specified; no effects.
`O=C1CCCCCCCCCCCCCCO1` [Pentadecan-15-olide] displayed an LEL of 100 mg/kg-day.

Consider `OCCc1ccccc1` [2-Phenylethanol], for which the LEL was 125 mg/kg-day.

On to `CC(=O)OCCC(C)C` [3-Methylbutyl acetate], for which the LEL turned out to be 1250 mg/kg-day.

`Cc1csc(C(C)C)n1` [2-Isopropyl-4-methylthiazole] came in with an LEL of 15 mg/kg-day.

In turn, `CC1CCC(C(C)(C)S)C(=O)C1` (configuration not stated) [p-Mentha-8-thiol-3-one] showed an LEL of 5 mg/kg-day.

`C=CC(C)(O)CCC=C(C)C` (configuration not stated) [Linalool]: the LEL turned out to be 300 mg/kg-day.

Consider `CC(C)CC(=O)OCCc1ccccc1` [Phenethyl isovalerate], for which the LEL stood at 300 mg/kg-day.

`COc1ccc2ccccc2c1` [2-Methoxynaphthalene] returned an LEL of 12 mg/kg-day.

The compound `CCCCCCC(=O)OCC` [Ethyl heptanoate] showed an LEL of 318 mg/kg-day.

The next series concerns Gallus gallus. The settings on record: subchronic; duration: 36 days; oral; diet; M; Chicken; no effects.
`O=C1CCCCCCCCCCCCCCO1` [Pentadecan-15-olide] yielded an LEL of 100 mg/kg-day.

As for `OCCc1ccccc1` [2-Phenylethanol], the LEL worked out at 125 mg/kg-day.

For the compound `CC(=O)OCCC(C)C` [3-Methylbutyl acetate], the LEL was 1250 mg/kg-day.

For the compound `Cc1csc(C(C)C)n1` [2-Isopropyl-4-methylthiazole], the LEL came out at 15 mg/kg-day.

The compound `CC1CCC(C(C)(C)S)C(=O)C1` (configuration not stated) [p-Mentha-8-thiol-3-one] displayed an LEL of 5 mg/kg-day.

Consider `C=CC(C)(O)CCC=C(C)C` (configuration not stated) [Linalool], for which the LEL worked out at 300 mg/kg-day.

As for `CC(C)CC(=O)OCCc1ccccc1` [Phenethyl isovalerate], the LEL came out at 300 mg/kg-day.

Compound `COc1ccc2ccccc2c1` [2-Methoxynaphthalene] had an LEL of 12 mg/kg-day.

As to `CCCCCCC(=O)OCC` [Ethyl heptanoate], the LEL was determined as 318 mg/kg-day.

The next series relates to Bovidae. The settings on record: subchronic; duration: 42 days; oral; diet; M; no effects.
As to `O=C1CCCCCCCCCCCCCCO1` [Pentadecan-15-olide], the LEL was 100 mg/kg-day.

The compound `OCCc1ccccc1` [2-Phenylethanol] gave an LEL of 125 mg/kg-day.

Compound `CC(=O)OCCC(C)C` [3-Methylbutyl acetate] displayed an LEL of 1250 mg/kg-day.

`Cc1csc(C(C)C)n1` [2-Isopropyl-4-methylthiazole] displayed an LEL of 15 mg/kg-day.

In turn, `CC1CCC(C(C)(C)S)C(=O)C1` (configuration not stated) [p-Mentha-8-thiol-3-one] returned an LEL of 5 mg/kg-day.

`C=CC(C)(O)CCC=C(C)C` (configuration not stated) [Linalool] had an LEL of 300 mg/kg-day.

In the case of `CC(C)CC(=O)OCCc1ccccc1` [Phenethyl isovalerate], the LEL was 300 mg/kg-day.

As for `COc1ccc2ccccc2c1` [2-Methoxynaphthalene], the LEL stood at 12 mg/kg-day.

`CCCCCCC(=O)OCC` [Ethyl heptanoate] displayed an LEL of 318 mg/kg-day.
